Experimental data as given in patent US20060229284A1, “Enhanced occlusive effect photodynamic therapy” (priority 2004, published 2006).

Columns and labels:
skin = details: systemic administration, clinical use; cited from earlier work
[1] = system: subfoveal choroidal neovascularization (CNV); details: cases followed for 3 months after a single PDT treatment; cited from earlier work
[2] = system: choroidal neovascularization (CNV); details: after re-treatment; cited from earlier work
[3] = system: choroidal neovascularization (CNV); details: cited from earlier work
classic CNV = details: 3 months after initial PDT treatment; cited from earlier work
[4] = system: neovasculature of the eye (advanced AMD); assay: Clinical trial of PDT with Talaporfin Sodium and 664 nm laser light in 9 human subjects with advanced AMD; type: in vivo
Excerpt: A clinical trial of 9 human subjects with advanced AMD was arranged. The 9 subjects were each treated with PDT using Talaporfin Sodium, and a laser light at 664 nm wavelength as the excitation light source. The Table as provided in FIG. 1 describes the results of and details of the PDT procedures performed on the 9 subjects.

Molecule: sodium porfimer [Photophrine]
- duration of skin photosensitivity (skin): up to 6 weeks

Molecule: CCOC(=O)C1=Cc2c3nc(cc4nc(cc5[n-]c(cc6[n-]c2c(C)c6CC)c(C)c5CC)C(C)=C4CC)[C@@H](C)[C@]13CC.[Cl-].[Cl-].[Sn] (racemic) [Purlytin]
- duration of skin photosensitivity (skin): several weeks

Molecule: Oc1cccc(-c2c3nc(c(-c4cccc(O)c4)c4ccc([nH]4)c(-c4cccc(O)c4)c4nc(c(-c5cccc(O)c5)c5ccc2[nH]5)CC4)C=C3)c1 [Foscan]
- duration of skin photosensitivity (skin): several weeks

Molecule: verteporfin
- cases with progression of classic CNV beyond the area of CNV identified before treatment [1]: 51%
- leakage activity compared to baseline leakage [2]: appeared to be reduced
- subject eyes that maintained CNV closure ([3]; after 1 week): 83%
- eyes showing closure ([3]; after 5 weeks): 9%
- eyes showing leakage had recommenced ([3]; after 5 weeks, excluding one eye removed from test data): 91%
- eyes scheduled for retreatment (classic CNV): 90.8%
- eyes with classic CNV present that displayed leakage from classic CNV again (classic CNV): 92.8%

Molecule: C=Cc1c(C)c2cc3nc(c(CC(=O)N[C@@H](CC(=O)O)C(=O)O)c4[nH]c(cc5nc(cc1[nH]2)C(C)=C5CC)c(C)c4C(=O)O)[C@@H](CCC(=O)O)[C@@H]3C [Talaporfin Sodium, mono-L-aspartyl-chlorin e6]
- extended period of enhanced neovasculature occlusive effect ([4]; most patients of 9 subjects, laser light 664 nm): ≥ 15 weeks
- retina and leakage after treatment ([4]; subjects 1 and 3, who had leakage causing serious elevation of the retina): the retina appeared more flat and leakage had apparently ceased
- re-opening of treated vessels during subsequent observations ([4]; subjects studied, FIG. 1): no indication of re-opening of vessels
